Experimental data published in paper PMC12298827, “Subchronic Toxicities of Four Per- and Polyfluoroalkyl Substances (PFASs) by Oral Exposure in Sprague–Dawley Rats” (Toxics, 2025).

Experiments:
[1] = Stability of dosing formulations in corn oil; type: physicochemical
Text: Based on solubility, corn oil (Welsh, Holme & Clark Inc., Newark, NJ, USA) was used as the vehicle for all four PFASs. Gas chromatography (GC) with flame ionization detection (FID) was used for the analysis of the PFNAC, PFHI, and MHFPK formulations, and a high-performance liquid chromatography (HPLC) method with ultraviolet spectroscopy was used for the CTFPA formulation. The details of the dosing solution analytical conditions are summarized in supplemental Tables S1 and S2. These analytical methods were developed specifically for these subchronic toxicity studies. […] Dosing solutions were prepared and replaced between at least every 29 days and no more than every 39 days.
PFNAC, PFHI, and MHFPK were soluble in corn oil up to 67, 200, and 100 mg/mL, respectively. As solubility in aqueous vehicles was 40 mg/mL or less for all three chemicals, corn oil was chosen as the vehicle. PFNAC was stable at the ambient temperature for 51 days at target concentrations of 0.2 and 10 mg/mL PFHI was stable in corn oil at ambient temperatures and target concentrations of 1 and 80 mg/mL for up to 70 days. MFHPK was stable in corn oil at room temperature for up to 44 days at target concentrations of 5 and 100 mg/mL. CTFPA was soluble in both deionized (DI) water and corn oil at 200 mg/mL when stored refrigerated overnight. […] Thus, corn oil was chosen as the vehicle for CTFPA. The stability of the CTFPA in the corn oil was evaluated for 8, 13, 15, 23, 35, and 42 days stored refrigerated in plastic bottles. CTFPA at 40 mg/mL was stable for up to 42 days. CTFPA at 0.6 mg/mL was stable for up to […] when refrigerated in plastic bottles but by 42 days had decreased to approximately 81%.

[2] = Parent chemical in rat plasma, 90-day study; type: in vivo; conditions: for concentration at 91 day: Sprague-Dawley, rat, plasma, oral; for Percentage of the dose in the plasma: 90 days
Method: Subchronic (90-day) studies were performed in accordance with current U.S. EPA’s Toxic Substances Control Act Good Laboratory Practice (GLP) Standards, with the following two general exceptions to the GLP guidelines: Analysis of the dose formulations was conducted according to RTI-approved Standard Operating Procedures, and corn oil (the vehicle) was not characterized (certificate of analysis from the vendor is available in the appendices to the final reports). Male and female Sprague–Dawley rats (five dose levels plus a control, n = 10/sex/dose group, corn oil vehicle dose volume of 3 mL/kg; oral gavage) were used in these studies, and the rats were euthanized on SD 91. The dose levels for PFHI were 0, 12.5, 25, 50, 100, and 200 mg/kg-day. The dose levels for MHFPK were 0, 18.8, 37.5, 75, 150, and 300 mg/kg-day. The dose levels for PFNAC were 0, 0.1, 0.3, 1.0, 3.0, and 10 mg/kg-day for male rats and 0, 0.3, 1.0, 3.0, 10, and 30 mg/kg-day for female rats. For CTFPA, the dose levels were 0, 1.9, 3.8. 7.5, 15, and 30 mg/kg-day for male rats and 0, 6.3, 12.5, 25, 50, and 100 mg/kg-day for female rats. For each PFAS, three batches of dosing solution were prepared. The time between the batch preparation of the dosing solutions ranged between 29 and 39 days. Blood samples were collected from all the rats at termination for serum chemistry, hematology, coagulation, and the analysis of the parent PFAS chemical in the plasma. In vivo data collection and further detail on the endpoints examined postmortem are described below.
On SD 1 of the 14-day study (~2 h post dosing), 0.2 mL of blood was collected via tail vein puncture in tubes containing K3EDTA and stored on wet ice. Prior to the scheduled euthanasia, blood (~1 mL) was collected from the jugular vein in tubes containing K3EDTA and stored on wet ice on SD 15, for the 14-day study, and SD 91, for the 90-day study. All the tubes were centrifuged at an ~1500 relative centrifugal force within 1 h of collection for 15 min at 5 ± 3 °C. The plasma was stored at −75 ± 15 °C until the analysis. PFNAC and PFHI were analyzed using a headspace GC–mass spectrometry (MS) method, as summarized in Table S3, and CTFPA was analyzed using an ultra-HPLC-MS method, as summarized in Table S4. The MHFPK samples were not analyzed because a method suitable for plasma was not available. The details concerning the preparation of the samples, method blanks, and matrix and QC standards for the analysis are available in the appendices to the study reports.

O=C(O)C(F)(Cl)C(F)(F)F (stereo not drawn) [CTFPA, 2-Chloro-2,3,3,3-tetrafluoropropanoic acid]
Concentration remaining in corn oil ([1]; 0.6 mg/mL, by 42 days, refrigerated): approximately 81%
Stable in corn oil for ([1]; 0.6 mg/mL, refrigerated in plastic bottles): up to 22 days
Stable in corn oil for ([1]; 40 mg/mL, refrigerated in plastic bottles): up to 42 days
concentration at 91 day ([2]; female, Day 91, 6.3 mg/kg-day): 12600 ng/mL
concentration at 91 day ([2]; female, Day 91, 12.5 mg/kg-day): 24700 ng/mL
concentration at 91 day ([2]; female, Day 91, 25 mg/kg-day): 51000 ng/mL
concentration at 91 day ([2]; female, Day 91, 50 mg/kg-day): 71500 ng/mL
concentration at 91 day ([2]; female, Day 91, 100 mg/kg-day): 116000 ng/mL
concentration at 91 day ([2]; male, Day 91, 1.9 mg/kg-day): 12600 ng/mL
concentration at 91 day ([2]; male, Day 91, 3.8 mg/kg-day): 22300 ng/mL
concentration at 91 day ([2]; male, Day 91, 7.5 mg/kg-day): 43300 ng/mL
concentration at 91 day ([2]; male, Day 91, 15 mg/kg-day): 62100 ng/mL
concentration at 91 day ([2]; male, Day 91, 30 mg/kg-day): 84400 ng/mL
Percentage of the dose in the plasma ([2]; female, 100 mg/kg-day): 4.48 ± 1.63%
Percentage of the dose in the plasma ([2]; male, 30 mg/kg-day): 10.82 ± 2.76%

C=CC(=O)OCC(F)(F)C(F)(F)C(F)(F)C(F)(F)C(F)(F)C(F)(F)C(F)(F)C(F)F [PFNAC, 1H,1H,9H-Perfluorononyl acrylate]
Stable in corn oil for ([1]; ambient temperature, 0.2 and 10 mg/mL): 51 days
Parent chemical in plasma ([2]; female, Day 91, highest dose 30 mg/kg-day): Parent chemical not detected at the highest dose
Parent chemical in plasma ([2]; male, Day 91, highest dose 10 mg/kg-day): Parent chemical not detected at the highest dose

FC(F)(F)C(F)(F)C(F)(F)C(F)(F)CCI [PFHI, 1H,1H,2H,2H-Perfluorohexyl iodide]
Stable in corn oil for ([1]; ambient temperatures, 1 and 80 mg/mL): up to 70 days
concentration at 91 day ([2]; female, Day 91, 50 mg/kg-day): 12.2 ± 9.91 ng/mL
concentration at 91 day ([2]; female, Day 91, 100 mg/kg-day): 48.3 ± 22.9 ng/mL
concentration at 91 day ([2]; female, Day 91, 200 mg/kg-day): 76.7 ± 24.1 ng/mL
concentration at 91 day ([2]; male, Day 91, 200 mg/kg-day): 52.4 ± 24.1 ng/mL
Parent chemical in plasma ([2]; female, Day 91, 12.5 mg/kg-day): BLOD (below the limit of detection—1.7 ng/mL)
Parent chemical in plasma ([2]; female, Day 91, 25 mg/kg-day): <BLOD/≤LOQ
Parent chemical in plasma ([2]; male, Day 91, 12.5 mg/kg-day): BLOD (below the limit of detection—1.7 ng/mL)
Parent chemical in plasma ([2]; male, Day 91, 25 mg/kg-day): <BLOD/≤LOQ
Parent chemical in plasma ([2]; male, Day 91, 50 mg/kg-day): 14.0 ± 6.21 ng/mL
Parent chemical in plasma ([2]; male, Day 91, 100 mg/kg-day): 43.8 ± 7.53 ng/mL

CC(=O)C(F)(F)C(F)(F)C(F)(F)F [MHFPK, Methyl heptafluoropropyl ketone]
Stable in corn oil for ([1]; room temperature, 5 and 100 mg/mL): up to 44 days
